# According to patent US20240270809A1, “ORAL GLP RECEPTOR AGONISTS” (priority 2020, published 2024):
# Positions of bridges follow the written chain, without caps; N, C: chain ends. Non-standard residues stand in square brackets, D forms with d. Residues, ends and D or L forms follow the SMILES beside them. *: point of attachment. Malonyl(2,2-Me2,histaminyl) = CC(C)(C(=O)NCCc1cnc[nH]1)C(=O)*; Ala(1H-tetrazol-5-yl) = N[C@@H](Cc1nnn[nH]1)C(=O)O; αMeL = CC(C)C[C@](C)(N)C(=O)O; Nle = CCCC[C@H](N)C(=O)O; Aib = CC(C)(N)C(=O)O
# How the values were obtained:
# human GLP1 receptor = target: T1, human GLP1 receptor (Homo sapiens, UniProt P43220); experiment: cAMP accumulation assay, functional agonism of human GLP1 receptor; format: cell-based; settings: HEK cells infected with human GLP1 receptor BacMam virus, HTRF cAMP; for Emax: HEK293, read-out: Human GLP-1R agonist cAMP Emax; for EC50: read-out: Human GLP-1R agonist cAMP pEC50 (converted)
# T1 construct: expressed in transfected cells; host or cells: HEK cells, BacMam virus transduction
# Protocol: (§1) CAMP production upon agonist stimulation of human GLP2 or GLP1 receptor was assessed utilizing HiRange cAMP kit (Cisbio). In brief, HEK cells were infected with either human GLP2 or GLP1 receptor BacMam virus for 24 hours and frozen for later use in the assay. […] Cells were prepared in the assay buffer (HBSS (Lonza) supplemented with 0.5 mM IBMX (Tocris)). After 45 min incubation at 37° C., the reaction was stopped by addition of the HTRF detection reagents in the lysis buffer provided in the kit.
# human GLP2 receptor = target: T2, human GLP2 receptor (Homo sapiens, UniProt O95838); experiment: cAMP accumulation assay, functional agonism of human GLP2 receptor; format: cell-based; settings: HEK cells infected with human GLP2 receptor BacMam virus, HTRF cAMP; for Emax: HEK293, read-out: Human GLP-2R agonist cAMP Emax; for EC50: read-out: Human GLP-2R agonist cAMP pEC50 (converted)
# T2 construct: expressed in transfected cells; host or cells: HEK cells, BacMam virus transduction
# T2 sequence (O95838 1-553): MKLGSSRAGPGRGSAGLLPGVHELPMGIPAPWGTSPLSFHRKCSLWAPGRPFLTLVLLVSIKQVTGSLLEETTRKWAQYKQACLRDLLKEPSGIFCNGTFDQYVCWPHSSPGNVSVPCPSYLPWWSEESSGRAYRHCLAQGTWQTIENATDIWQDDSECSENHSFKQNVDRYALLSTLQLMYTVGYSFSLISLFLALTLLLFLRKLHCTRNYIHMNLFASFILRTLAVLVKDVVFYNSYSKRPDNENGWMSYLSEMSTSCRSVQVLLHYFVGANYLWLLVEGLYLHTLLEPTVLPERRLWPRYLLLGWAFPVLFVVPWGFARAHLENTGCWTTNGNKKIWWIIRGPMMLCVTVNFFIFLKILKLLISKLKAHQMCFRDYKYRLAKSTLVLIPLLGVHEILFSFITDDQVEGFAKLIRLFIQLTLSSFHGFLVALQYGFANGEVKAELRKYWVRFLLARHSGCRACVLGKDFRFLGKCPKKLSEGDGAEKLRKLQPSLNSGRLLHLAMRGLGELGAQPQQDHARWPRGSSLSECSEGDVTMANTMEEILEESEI
# Protocol: as §1
# T1 sequence (P43220 24-463): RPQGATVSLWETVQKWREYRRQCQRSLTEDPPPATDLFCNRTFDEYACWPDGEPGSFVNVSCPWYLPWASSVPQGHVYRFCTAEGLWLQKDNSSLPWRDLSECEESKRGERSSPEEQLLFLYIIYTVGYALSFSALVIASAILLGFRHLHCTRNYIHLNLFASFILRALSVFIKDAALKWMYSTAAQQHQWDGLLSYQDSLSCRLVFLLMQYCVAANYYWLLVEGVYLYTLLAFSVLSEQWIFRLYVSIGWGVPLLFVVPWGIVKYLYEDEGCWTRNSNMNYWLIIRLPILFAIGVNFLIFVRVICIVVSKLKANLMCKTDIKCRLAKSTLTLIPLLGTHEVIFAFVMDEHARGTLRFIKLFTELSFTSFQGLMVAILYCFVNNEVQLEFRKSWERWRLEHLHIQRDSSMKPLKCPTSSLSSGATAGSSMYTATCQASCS
SMILES,Emax (human GLP1 receptor) [%],EC50 (human GLP1 receptor) [nM],Emax (human GLP2 receptor) [%],EC50 (human GLP2 receptor) [nM]
"CCCC[C@H](NC(=O)[C@H](CCC(=O)O)NC(=O)[C@@H]1CC(=O)NCCCC[C@H](NC(=O)[C@H](CC(=O)O)NC(=O)C(C)(C)C(=O)NCCc2c[nH]cn2)C(=O)N[C@@H](CO)C(=O)N[C@@H](Cc2ccccc2)C(=O)N[C@@H](CO)C(=O)N1)C(=O)N[C@H](Cc1ccccc1)C(=O)N[C@H](C(=O)N[C@@](C)(CC(C)C)C(=O)N[C@@H](CC(C)C)C(=O)N[C@@H](CC(=O)O)C(=O)N[C@H]1CCC(=O)NCCCC[C@@H](C(=O)N[C@@H](CC(=O)O)C(=O)N[C@@H](Cc2ccccc2)C(=O)N[C@H](C(=O)N[C@H]2CCC(=O)NCCCC[C@@H](C(=O)N[C@H]3CCC(=O)NCCCC[C@@H](C(N)=O)NC(=O)[C@H]([C@@H](C)O)NC(=O)[C@H]([C@@H](C)CC)NC(=O)[C@H](CCCCN)NC3=O)NC(=O)[C@H]([C@@H](C)CC)NC(=O)[C@H](CC(C)C)NC(=O)[C@H](Cc3c[nH]c4ccccc34)NC2=O)[C@@H](C)CC)NC(=O)[C@H](C)NC(=O)[C@H](C)NC(=O)[C@H](CCCCN)NC1=O)[C@@H](C)O [Example 68] ({Malonyl(2,2-Me2,histaminyl)}-DKSFSDE[Nle][dF]T[αMeL]LDEKAAKDFIEWLIKEKITK-NH2; lactam 2-6, 14-18, 22-26, 27-31 (inferred); C-terminus assumed)",94,0.316,103,0.0794
"CCCC[C@H](NC(=O)[C@H](CCC(=O)O)NC(=O)[C@@H]1CC(=O)NCCCC[C@H](NC(=O)[C@H](CC(=O)O)NC(=O)C(C)(C)NC(=O)[C@@H](N)Cc2c[nH]cn2)C(=O)N[C@@H](CO)C(=O)N[C@@H](Cc2ccccc2)C(=O)N[C@@H](CO)C(=O)N1)C(=O)N[C@H](Cc1ccccc1)C(=O)N[C@H]1CCCCNC(=O)C[C@@H](C(=O)N[C@@H](CCCCN)C(=O)N[C@@H](C)C(=O)N[C@@H](C)C(=O)NC(C)(C)C(=O)N[C@@H](CC(=O)O)C(=O)N[C@@H](Cc2ccccc2)C(=O)N[C@H](C(=O)N[C@H]2CCC(=O)NCCCC[C@@H](C(=O)N[C@H]3CCC(=O)NCCCC[C@@H](C(N)=O)NC(=O)[C@H]([C@@H](C)O)NC(=O)[C@H]([C@@H](C)CC)NC(=O)[C@H](CCCCN)NC3=O)NC(=O)[C@H]([C@@H](C)CC)NC(=O)[C@H](CC(C)C)NC(=O)[C@H](Cc3c[nH]c4ccccc34)NC2=O)[C@@H](C)CC)NC(=O)[C@H](CC(=O)O)NC(=O)[C@H](CC(C)C)NC(=O)[C@H]([C@@H](C)CC)NC1=O [Example 47] (H-H[Aib]DKSFSDE[Nle][dF]KILDDKAA[Aib]DFIEWLIKEKITK-NH2; lactam 4-8, 12-16, 24-28, 29-33; N-terminus and C-terminus assumed)",93.6,0.316,104,0.158
CCCC[C@H](NC(=O)[C@H](CCC(=O)O)NC(=O)[C@H](CC(=O)O)NC(=O)[C@H](CO)NC(=O)[C@H](Cc1ccccc1)NC(=O)[C@H](CO)NC(=O)CNC(=O)[C@H](CC(=O)O)NC(=O)C(C)(C)NC(=O)[C@@H](N)Cc1c[nH]cn1)C(=O)N[C@H](Cc1ccccc1)C(=O)N[C@H](C(=O)N[C@H](C(=O)N[C@@H](CC(C)C)C(=O)N[C@@H](CC(=O)O)C(=O)N[C@@H](CC(C)C)C(=O)N[C@@H](CCCCN)C(=O)N[C@@H](C)C(=O)N[C@@H](C)C(=O)N[C@@H](CCCCN)C(=O)N[C@@H](CC(=O)O)C(=O)N[C@@H](Cc1ccccc1)C(=O)N[C@H](C(=O)N[C@H]1CCCCNC(=O)C[C@@H](C(=O)N[C@H](C(=O)N[C@@H](CCCCN)C(=O)N[C@H](C(=O)N[C@H](C(=O)N[C@@H](CC(=O)O)C(N)=O)[C@@H](C)O)[C@@H](C)CC)[C@@H](C)O)NC(=O)[C@H]([C@@H](C)CC)NC(=O)[C@H](CC(C)C)NC(=O)[C@H](Cc2c[nH]c3ccccc23)NC1=O)[C@@H](C)CC)[C@@H](C)CC)[C@@H](C)O [Example 100] (H-H[Aib]DGSFSDE[Nle][dF]TILDLKAAKDFIKWLIDTKITD-NH2; lactam 24-28; N-terminus and C-terminus assumed),96,0.794,100,0.00501
CCCC[C@H](NC(=O)[C@H](CCC(=O)O)NC(=O)[C@H](CC(=O)O)NC(=O)[C@H](CO)NC(=O)[C@H](Cc1ccccc1)NC(=O)[C@H](CO)NC(=O)CNC(=O)[C@H](CC(=O)O)NC(=O)C(C)(C)NC(=O)[C@@H](N)Cc1c[nH]cn1)C(=O)N[C@H](Cc1ccccc1)C(=O)N[C@H](C(=O)N[C@H](C(=O)N[C@@H](CC(C)C)C(=O)N[C@@H](CC(=O)O)C(=O)N[C@@H](CC(C)C)C(=O)N[C@H]1CCC(=O)NCCCC[C@@H](C(=O)N[C@@H](CC(=O)O)C(=O)N[C@@H](Cc2ccccc2)C(=O)N[C@H](C(=O)N[C@@H](CC(N)=O)C(=O)N[C@@H](Cc2c[nH]c3ccccc23)C(=O)N[C@@H](CC(C)C)C(=O)N[C@H](C(=O)N[C@@H](CCC(N)=O)C(=O)N[C@H](C(=O)N[C@@H](CCCCN)C(=O)N[C@H](C(=O)N[C@H](C(=O)N[C@@H](CC(=O)O)C(N)=O)[C@@H](C)O)[C@@H](C)CC)[C@@H](C)O)[C@@H](C)CC)[C@@H](C)CC)NC(=O)[C@H](C)NC(=O)[C@H](C)NC1=O)[C@@H](C)CC)[C@@H](C)O [Example 98] (H-H[Aib]DGSFSDE[Nle][dF]TILDLEAAKDFINWLIQTKITD-NH2; lactam 17-20; C-terminus assumed),96,20,101,0.00631
"CCCC[C@H](NC(=O)[C@H](CCC(=O)O)NC(=O)[C@@H]1CC(=O)NCCCC[C@H](NC(=O)[C@H](CC(=O)O)NC(=O)C(C)(C)NC(=O)[C@@H](N)Cc2c[nH]cn2)C(=O)N[C@@H](CO)C(=O)N[C@@H](Cc2ccccc2)C(=O)N[C@@H](CO)C(=O)N1)C(=O)N[C@H](Cc1ccccc1)C(=O)N[C@H]1CCC(=O)NCCCC[C@@H](C(=O)N[C@@H](CCCCN)C(=O)N[C@@H](C)C(=O)N[C@@H](C)C(=O)NC(C)(C)C(=O)N[C@@H](CC(=O)O)C(=O)N[C@@H](Cc2ccccc2)C(=O)N[C@H](C(=O)N[C@H]2CCC(=O)NCCCC[C@@H](C(=O)N[C@H](C(=O)N[C@@H](CCCCN)C(N)=O)[C@@H](C)O)NC(=O)[C@H]([C@@H](C)CC)NC(=O)[C@H](CC(C)C)NC(=O)[C@H](Cc3c[nH]c4ccccc34)NC2=O)[C@@H](C)CC)NC(=O)[C@H](CC(=O)O)NC(=O)[C@H](CC(C)C)NC(=O)[C@H]([C@@H](C)CC)NC1=O [Example 5] (H-H[Aib]DKSFSDE[Nle][dF]EILDKKAA[Aib]DFIEWLIKTK-NH2; lactam 4-8, 12-16, 24-28 (inferred); N-terminus and C-terminus assumed)",92.5,–,104,–
"CCCC[C@@H]1NC(=O)[C@H](CCC(=O)O)NC(=O)[C@H](CC(=O)O)NC(=O)[C@@H](NC(=O)[C@H](Cc2ccccc2)NC(=O)[C@H](CO)NC(=O)CNC(=O)[C@H](Cc2nn[nH]n2)NC(=O)C(C)(C)C(=O)NCCc2c[nH]cn2)CCC(=O)NCCCC[C@@H](C(=O)N[C@H]2CCC(=O)NCCCC[C@@H](C(=O)N[C@H]3CCCCNC(=O)C[C@@H](C(=O)N[C@@H](Cc4ccccc4)C(=O)N[C@H](C(=O)N[C@H]4CCC(=O)NCCCC[C@@H](C(=O)N[C@H]5CCCCNC(=O)CC[C@@H](C(N)=O)NC(=O)[C@H]([C@@H](C)O)NC(=O)[C@H]([C@@H](C)CC)NC(=O)[C@H](CCCCN)NC5=O)NC(=O)[C@H]([C@@H](C)CC)NC(=O)[C@H](CC(C)C)NC(=O)[C@H](Cc5c[nH]c6ccccc56)NC4=O)[C@@H](C)CC)NC(=O)[C@H](CCCCN)NC(=O)[C@H](C)NC(=O)[C@H](C)NC3=O)NC(=O)[C@H](CC(=O)O)NC(=O)[C@H](CC(C)C)NC(=O)[C@H]([C@@H](C)CC)NC2=O)NC1=O [Example 81] ({Malonyl(2,2-Me2,histaminyl)}-[Ala(1H-tetrazol-5-yl)]GSFEDE[Nle]KEILDKKAAKDFIEWLIKKKITE-NH2; lactam 5-9, 10-14, 15-19, 22-26, 27-31; C-terminus assumed)",56.1,3.16,91.6,0.631
